Patent publication US10214492B2, “Heterocyclic inhibitors of MCT4” (Vettore, LLC, priority 2016, dated 2019)

Key:
MCT4 = MCT4 (Homo sapiens (Human), UniProt O15427); assay: Assay 3: MCT4-mediated lactate transport in MDA-MB-231 breast cancer cells; assay type: cell-based; conditions: MDA-MB-231 cells; lactate transport
Outline: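 Read-out is BCECF fluorescence tracking the intracellular pH shift from MCT4-mediated lactate/H+ co-transport. Before measurement, MDA-MB-231 cells take up BCECF-AM for 5 min at 37° C, then are washed into Tyrode's Solution, pH 7.4.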

MCT1 = MCT1 (Homo sapiens (Human), UniProt P53985); assay: Assay 4: MCT1-mediated lactate transport in BT20 breast cancer cells; assay type: cell-based; conditions: Table 27
Sequence of MCT1 (P53985 whole entry): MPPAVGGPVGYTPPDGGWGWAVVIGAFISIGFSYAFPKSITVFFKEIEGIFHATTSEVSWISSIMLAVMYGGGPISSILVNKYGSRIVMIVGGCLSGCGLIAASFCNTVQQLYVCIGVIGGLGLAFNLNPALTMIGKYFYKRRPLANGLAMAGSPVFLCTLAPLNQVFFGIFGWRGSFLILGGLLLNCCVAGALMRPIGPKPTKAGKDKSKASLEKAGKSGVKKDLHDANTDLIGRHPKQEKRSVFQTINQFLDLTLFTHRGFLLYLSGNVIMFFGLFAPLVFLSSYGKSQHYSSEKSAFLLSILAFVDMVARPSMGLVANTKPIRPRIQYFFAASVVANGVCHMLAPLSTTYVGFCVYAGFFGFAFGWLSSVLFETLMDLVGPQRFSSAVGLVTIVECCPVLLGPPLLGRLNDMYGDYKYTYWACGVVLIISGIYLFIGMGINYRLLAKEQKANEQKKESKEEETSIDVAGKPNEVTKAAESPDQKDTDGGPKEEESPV
Sequence of MCT1 (P35613 140-385 partner): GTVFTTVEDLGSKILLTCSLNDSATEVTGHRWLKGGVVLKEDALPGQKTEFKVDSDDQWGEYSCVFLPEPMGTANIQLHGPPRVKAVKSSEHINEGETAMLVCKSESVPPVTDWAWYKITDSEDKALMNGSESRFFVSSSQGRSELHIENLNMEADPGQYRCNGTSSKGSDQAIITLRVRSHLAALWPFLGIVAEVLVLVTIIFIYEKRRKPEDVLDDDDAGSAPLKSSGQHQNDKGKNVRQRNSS
Outline: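 Transport started with 10 mM L-lactate on BCECF-loaded BT20 cells in Tyrode's Solution, pH 7.4. Dye loading: BCECF-AM ester (30 mM DMSO stock), 5 min at 37° C, then one wash.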

[1] = Metabolic stability in human liver microsomes (in vitro t1/2); assay type: in vitro ADME; conditions: for Human microsome % 60 min: human liver microsomes; for half-life at 2 µM: read-out: Human microsome t1/2, min
Outline: (§1)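 Test compound (2 μM final) was added to NADPH-supplemented microsomes at 0.5 mg/mL protein and sampled over 60 min (0–60 min time points). In vitro t1/2 was calculated as −0.693/k, with k the slope of ln percent parent remaining, measured by LC-MS/MS, against time.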

[2] = Metabolic stability in rat liver microsomes (in vitro t1/2); assay type: in vitro ADME; conditions: for half-life at 2 µM: rat liver microsomes 0.5 mg/mL, 2 μM compound, read-out: Rat microsome t1/2, min; for Rat microsome % 60 min: rat liver microsomes
Outline: as §1

[3] = Metabolic stability in mouse liver microsomes (in vitro t1/2); assay type: in vitro ADME; conditions: for half-life at 2 µM: mouse liver microsomes 0.5 mg/mL, 2 μM compound, read-out: Mouse microsome t1/2, min; for Mouse microsome % 60 min: mouse liver microsomes
Outline: as §1

[4] = Pharmacokinetic assay in mouse (IV 3 mg/kg, PO 10 mg/kg); assay type: in vivo; conditions: Male CD1 mouse; for Mouse F: oral bioavailability; for Mouse F / half-life: PO 10 mg/kg; for half-life / Vd: plasma; for half-life: read-out: Mouse t1/2 (converted); for Vd: volume of distribution, read-out: Mouse Vss
Source text: (§2) The following are assays that may be used to evaluate the pharmacokinetic properties of Formula (I) in mouse or rat. The assays follow a common procedure recited below.
(§3) 1. […] For PO (oral gavage), DMSO/PEG400 (10:90). Formulations freshly prepared on the day of dosing or prior to dosing. Storage at room temperature.
(§4) 2. Test Species: For Mouse: Male CD1 strain, approximately 6-8 weeks in age, approximately 20-30 g. For Rat: Male Sprague-Dawley strain, approximately 6-8 weeks in age, approximately 200-300 g.
(§5) 3. Dose Level: For IV, 3 mg/kg. For PO, 10 mg/kg.
(§6) 4. Number of animals: 3 per assay.
(§7) 5. PK time points: For IV (plasma): 5 min, 15 min, 1, 2, 4, 6, 8, 24 h post dose. For PO (plasma): 15 min, 30 min, 1, 2, 4, 6, 8, 24 h post dose.
(§8) 6. Blood Sample Collection and Processing. Blood was collected (˜0.2 mL per time point) from jugular vein. Blood of each sample was transferred into plastic micro centrifuge tubes containing anticoagulant of EDTA-K2. Blood samples were centrifuged at 2,000 g for 5 minutes at 4° C. to obtain plasma.
(§9) 7. Samples Analysis: Plasma samples were analyzed using LC/MS/MS method, and pharmacokinetic parameters (half-life: t1/2; oral bioavailability: F; volume of distribution: Vss).

[5] = Pharmacokinetic assay in rat (IV 3 mg/kg, PO 10 mg/kg); assay type: in vivo; conditions: Male Sprague-Dawley rat; for Rat F: oral bioavailability; for Rat F / half-life: PO 10 mg/kg; for half-life / Vd: plasma; for half-life: read-out: Rat t1/2 (converted); for Vd: volume of distribution, read-out: Rat Vss
Source text: as §2, §3, §4, §5, §6, §7, §8, §9

[6] = Adjuvant-induced arthritis model in rat: Difference of Weight Bearing test (DWB); assay type: in vivo; conditions: SD rat, CFA-induced arthritis; PO 3 days post CFA; compared to Dexamethasone
[7] = Adjuvant-induced arthritis model in rat: Mechanical Allodynia test (MA, Von Frey); assay type: in vivo; conditions: SD rat, CFA-induced arthritis; PO 3 days post CFA; compared to Dexamethasone
[8] = human liver microsomes 0.5 mg/mL, 2 μM compound

Sequence of MCT4 (O15427 whole entry, looked up): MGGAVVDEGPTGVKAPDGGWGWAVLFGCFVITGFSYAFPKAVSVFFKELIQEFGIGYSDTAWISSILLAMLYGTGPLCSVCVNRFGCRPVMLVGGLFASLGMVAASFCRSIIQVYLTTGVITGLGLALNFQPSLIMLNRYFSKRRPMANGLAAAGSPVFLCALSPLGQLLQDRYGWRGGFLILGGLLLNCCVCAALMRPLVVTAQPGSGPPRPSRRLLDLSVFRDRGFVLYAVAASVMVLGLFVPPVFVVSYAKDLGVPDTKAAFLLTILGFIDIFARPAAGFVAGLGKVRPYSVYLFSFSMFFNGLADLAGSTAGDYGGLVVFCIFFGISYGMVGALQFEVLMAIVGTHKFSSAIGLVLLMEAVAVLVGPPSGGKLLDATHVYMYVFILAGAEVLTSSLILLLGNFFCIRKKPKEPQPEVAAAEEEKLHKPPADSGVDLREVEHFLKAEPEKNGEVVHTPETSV
Sequence of MCT4 (P35613 whole entry partner, looked up): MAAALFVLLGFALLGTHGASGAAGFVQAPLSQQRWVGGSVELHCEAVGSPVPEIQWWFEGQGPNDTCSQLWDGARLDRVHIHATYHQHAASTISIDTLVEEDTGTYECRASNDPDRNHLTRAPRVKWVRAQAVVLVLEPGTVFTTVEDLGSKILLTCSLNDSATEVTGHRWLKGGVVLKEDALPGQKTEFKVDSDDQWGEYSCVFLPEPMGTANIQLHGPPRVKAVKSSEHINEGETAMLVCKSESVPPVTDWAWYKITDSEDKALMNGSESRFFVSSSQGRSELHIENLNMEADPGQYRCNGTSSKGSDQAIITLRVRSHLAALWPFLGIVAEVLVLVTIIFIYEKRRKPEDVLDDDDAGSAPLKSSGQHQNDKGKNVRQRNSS

IC50 (MCT4) [nM] | IC50 (MCT1) [nM] | Human microsome t1/2, min [1, 8] | Human microsome % 60 min [1] [%] | half-life at 2 µM [2] [h] | Rat microsome % 60 min [2] [%] | half-life at 2 µM [3] [h] | Mouse microsome % 60 min [3] [%] | Mouse F [4] [%] | half-life [4] [h] | Vd [4] [L/kg] | Rat F [5] [%] | half-life [5] [h] | Vd [5] [L/kg] | half-life at 2 µM [1, 8] [h] | SMILES | Difference in Weight Bearing, Minimal Efficacious Dose [6] [mg/kg] | Mechanical Allodynia (Von Frey), Minimal Efficacious Dose [7] [mg/kg]
0.54 | 33000 | ∞ | 105 | 4.87 | 86 | 17.3 | 102 | 100 | 6.9 | 1.7 | 29 | 2.8 | 0.68 |  | CCn1ncc2ccc(-c3cc(CO[C@](C)(CC)C(=O)O)nn3Cc3ccccc3Cl)cc21 [Example 220, (2R)-2-([1-[(2-chlorophenyl)methyl]-5-(1-ethyl-1H-indazol-6-yl)-1H-pyrazol-3-yl]methoxy)-2-methylbutanoic acid] | 3 | 3
1.9 | 42000 |  | 64 | 1.82 | 69 | 3.27 | 81 | 100 | 4.2 | 1.9 | 100 | 2.7 | 1 | 1.72 | CCn1ncc2ccc(-c3cc(COC(C)(C)C(=O)O)nn3-c3ccccc3N3CCCC3)cc21 [Example 229] | 3 | 3
2.1 | 29000 |  | 65 | 1.17 | 50 | 1.22 | 59 | 56 | 3.1 | 0.21 | 52 | 2.6 | 0.15 | 1.62 | CC(C)(OCc1cc(-c2cccc(OC3CC3)c2)n(-c2ccccc2N2CCC2)n1)C(=O)O [Example 232, 2-([1-[2-(Azetidin-1-yl)phenyl]-5-(3-cyclo-propoxyphenyl)-1H-pyrazol-3-yl]methoxy)-2-methylpropanoic acid] | 1 | 1
